What all share (experiment): radiometric kinase profiling (33 PanQinase)
Holding throughout (assay type): biochemical

In one assay the target is T1, LCK (Homo sapiens, UniProt P06239).
T1 construct: purchased ProQinase (33PanQinase Activity Assay)
The conditions noted are these: read-out: Inhibitory effect (%) LCK. In outline:
(§1)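 Enzyme/substrate mixes were incubated with [γ-33P]-ATP and compound (added as a 0.1 μM solution in 10% DMSO) at 30 °C for 60 min, then stopped with H3PO4 and washed with NaCl. 33P incorporation was scintillation-counted, and residual activity (%) was normalized to untreated control and background.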

For another assay, the target named is T2, SRC (Homo sapiens, UniProt P12931).
T2 construct: purchased ProQinase (33PanQinase Activity Assay)
T2 sequence (P12931 whole entry): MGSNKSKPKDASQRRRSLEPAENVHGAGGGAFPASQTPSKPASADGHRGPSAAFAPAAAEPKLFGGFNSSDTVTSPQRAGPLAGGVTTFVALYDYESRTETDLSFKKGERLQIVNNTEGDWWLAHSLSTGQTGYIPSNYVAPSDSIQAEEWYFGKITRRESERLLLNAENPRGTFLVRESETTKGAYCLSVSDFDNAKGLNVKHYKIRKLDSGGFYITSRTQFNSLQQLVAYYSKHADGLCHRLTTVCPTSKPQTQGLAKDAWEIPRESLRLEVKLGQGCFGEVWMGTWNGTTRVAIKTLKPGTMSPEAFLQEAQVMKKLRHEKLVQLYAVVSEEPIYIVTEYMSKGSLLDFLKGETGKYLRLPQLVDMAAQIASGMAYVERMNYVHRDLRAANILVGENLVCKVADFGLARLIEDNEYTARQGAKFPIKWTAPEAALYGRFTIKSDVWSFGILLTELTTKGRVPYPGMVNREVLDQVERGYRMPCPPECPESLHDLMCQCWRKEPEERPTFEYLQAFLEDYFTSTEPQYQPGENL
The note with it: read-out: Inhibitory effect (%) SRC. The essentials:
as §1

A further assay has as its target T3, NEK1 (Homo sapiens, UniProt Q96PY6).
T3 construct: purchased ProQinase (33PanQinase Activity Assay)
T3 sequence (Q96PY6 1-1258): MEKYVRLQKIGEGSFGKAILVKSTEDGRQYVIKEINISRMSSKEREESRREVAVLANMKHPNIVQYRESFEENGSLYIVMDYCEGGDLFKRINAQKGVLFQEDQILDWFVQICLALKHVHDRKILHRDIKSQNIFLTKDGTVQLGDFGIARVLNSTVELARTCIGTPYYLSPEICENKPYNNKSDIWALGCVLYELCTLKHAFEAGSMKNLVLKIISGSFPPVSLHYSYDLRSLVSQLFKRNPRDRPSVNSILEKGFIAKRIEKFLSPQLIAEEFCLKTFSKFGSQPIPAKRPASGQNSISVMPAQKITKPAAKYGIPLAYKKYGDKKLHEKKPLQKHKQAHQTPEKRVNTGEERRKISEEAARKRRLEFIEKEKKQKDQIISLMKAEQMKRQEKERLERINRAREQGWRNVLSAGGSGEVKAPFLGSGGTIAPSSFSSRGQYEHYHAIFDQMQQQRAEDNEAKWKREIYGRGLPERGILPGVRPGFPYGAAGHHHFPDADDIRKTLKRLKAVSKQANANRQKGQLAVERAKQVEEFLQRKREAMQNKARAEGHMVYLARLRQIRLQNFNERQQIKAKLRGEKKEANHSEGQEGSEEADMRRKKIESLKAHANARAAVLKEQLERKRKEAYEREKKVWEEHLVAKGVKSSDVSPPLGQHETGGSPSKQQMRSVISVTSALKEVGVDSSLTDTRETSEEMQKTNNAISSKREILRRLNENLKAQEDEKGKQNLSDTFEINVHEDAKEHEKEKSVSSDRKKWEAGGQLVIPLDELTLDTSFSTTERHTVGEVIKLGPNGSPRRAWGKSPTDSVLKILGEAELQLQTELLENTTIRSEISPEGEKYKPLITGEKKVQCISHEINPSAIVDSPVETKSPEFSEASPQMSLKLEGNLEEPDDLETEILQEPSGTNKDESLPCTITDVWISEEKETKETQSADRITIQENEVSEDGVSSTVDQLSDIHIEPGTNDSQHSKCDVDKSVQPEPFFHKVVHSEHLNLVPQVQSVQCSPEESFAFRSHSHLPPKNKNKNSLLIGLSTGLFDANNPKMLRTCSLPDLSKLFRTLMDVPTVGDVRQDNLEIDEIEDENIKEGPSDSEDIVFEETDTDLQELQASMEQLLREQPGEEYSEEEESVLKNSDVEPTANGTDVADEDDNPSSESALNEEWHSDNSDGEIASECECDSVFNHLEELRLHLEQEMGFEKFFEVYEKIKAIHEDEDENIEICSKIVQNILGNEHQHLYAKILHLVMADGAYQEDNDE
The note with it: read-out: Inhibitory effect (%) NEK1. In outline: as §1

In a further assay the target is T4, NTRK1 (Homo sapiens, UniProt P04629).
T4 construct: purchased ProQinase (33PanQinase Activity Assay)
T4 sequence (P04629 33-796): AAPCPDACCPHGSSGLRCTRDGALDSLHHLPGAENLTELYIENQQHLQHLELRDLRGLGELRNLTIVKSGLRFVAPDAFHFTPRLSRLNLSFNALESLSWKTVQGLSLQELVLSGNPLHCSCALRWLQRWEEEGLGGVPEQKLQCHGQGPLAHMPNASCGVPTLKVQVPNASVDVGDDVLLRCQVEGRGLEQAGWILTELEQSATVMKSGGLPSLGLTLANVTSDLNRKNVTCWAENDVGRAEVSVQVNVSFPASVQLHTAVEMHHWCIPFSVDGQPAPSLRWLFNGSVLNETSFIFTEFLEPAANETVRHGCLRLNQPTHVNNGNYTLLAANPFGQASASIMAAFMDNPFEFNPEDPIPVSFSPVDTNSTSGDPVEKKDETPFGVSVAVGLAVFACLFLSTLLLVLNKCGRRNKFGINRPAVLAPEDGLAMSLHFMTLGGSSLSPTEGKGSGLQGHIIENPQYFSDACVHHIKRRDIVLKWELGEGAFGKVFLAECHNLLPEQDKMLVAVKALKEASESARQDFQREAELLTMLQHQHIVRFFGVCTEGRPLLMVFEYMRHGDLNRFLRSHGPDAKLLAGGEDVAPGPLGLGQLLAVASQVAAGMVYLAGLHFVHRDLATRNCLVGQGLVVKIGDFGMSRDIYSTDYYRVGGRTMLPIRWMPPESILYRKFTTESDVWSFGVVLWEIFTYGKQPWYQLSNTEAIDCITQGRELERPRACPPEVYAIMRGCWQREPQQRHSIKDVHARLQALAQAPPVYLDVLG
The conditions noted are these: read-out: Inhibitory effect (%) NTRK1. The essentials:
as §1

A further assay concerns the target T5, AKT1 (Homo sapiens, UniProt P31749).
T5 construct: purchased Proqinase, Germany
The note with it: read-out: Inhibitory effect (%) AKT1. In outline:
as §1

The next assay has as its target T6, AXL (Homo sapiens, UniProt P30530).
T6 construct: purchased Proqinase, Germany
T6 sequence (P30530 26-894): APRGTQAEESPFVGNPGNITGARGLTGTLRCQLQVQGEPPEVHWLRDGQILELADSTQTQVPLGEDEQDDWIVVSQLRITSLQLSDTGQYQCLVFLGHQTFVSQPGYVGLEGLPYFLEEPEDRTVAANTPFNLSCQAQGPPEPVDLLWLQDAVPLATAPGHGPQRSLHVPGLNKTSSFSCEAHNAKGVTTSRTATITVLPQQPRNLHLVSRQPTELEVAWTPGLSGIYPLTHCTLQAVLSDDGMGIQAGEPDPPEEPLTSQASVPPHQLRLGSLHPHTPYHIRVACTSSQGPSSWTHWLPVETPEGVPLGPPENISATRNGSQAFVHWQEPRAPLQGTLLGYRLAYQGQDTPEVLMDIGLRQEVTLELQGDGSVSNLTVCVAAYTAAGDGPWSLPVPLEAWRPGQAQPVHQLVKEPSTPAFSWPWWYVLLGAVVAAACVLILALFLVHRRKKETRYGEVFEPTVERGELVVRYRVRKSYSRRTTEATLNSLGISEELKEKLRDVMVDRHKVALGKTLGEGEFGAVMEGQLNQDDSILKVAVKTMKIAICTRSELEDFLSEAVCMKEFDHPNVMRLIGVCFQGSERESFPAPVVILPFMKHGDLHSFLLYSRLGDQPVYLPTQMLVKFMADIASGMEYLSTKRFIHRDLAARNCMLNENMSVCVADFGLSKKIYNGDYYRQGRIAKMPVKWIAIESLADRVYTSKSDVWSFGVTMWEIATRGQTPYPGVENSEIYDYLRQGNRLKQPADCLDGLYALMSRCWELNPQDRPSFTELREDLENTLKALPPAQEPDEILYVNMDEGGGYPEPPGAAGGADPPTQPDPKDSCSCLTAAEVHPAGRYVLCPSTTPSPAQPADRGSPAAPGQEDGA
The conditions noted are these: read-out: Inhibitory effect (%) AXL. In outline:
as §1

The next assay has as its target T7, EPHA5 (Homo sapiens, UniProt P54756).
T7 construct: purchased ProQinase (33PanQinase Activity Assay)
The conditions noted are these: read-out: Inhibitory effect (%) EPHA5. In outline:
as §1

Another assay deals with T8, MAP2K1 (Homo sapiens, UniProt Q02750).
T8 construct: purchased ProQinase (33PanQinase Activity Assay)
T8 sequence (Q02750 whole entry): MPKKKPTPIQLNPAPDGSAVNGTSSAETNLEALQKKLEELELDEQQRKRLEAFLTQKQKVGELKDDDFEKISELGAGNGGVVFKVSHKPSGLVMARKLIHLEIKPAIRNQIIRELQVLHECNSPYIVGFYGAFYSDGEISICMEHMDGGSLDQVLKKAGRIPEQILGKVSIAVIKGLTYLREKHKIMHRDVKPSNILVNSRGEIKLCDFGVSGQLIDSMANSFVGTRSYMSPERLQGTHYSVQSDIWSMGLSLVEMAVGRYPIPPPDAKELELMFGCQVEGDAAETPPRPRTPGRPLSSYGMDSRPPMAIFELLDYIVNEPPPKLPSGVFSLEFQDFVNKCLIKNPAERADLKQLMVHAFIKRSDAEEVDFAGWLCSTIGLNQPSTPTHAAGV
The conditions noted are these: read-out: Inhibitory effect (%) MAP2K1. In outline: as §1

T7 sequence (P54756 25-1037): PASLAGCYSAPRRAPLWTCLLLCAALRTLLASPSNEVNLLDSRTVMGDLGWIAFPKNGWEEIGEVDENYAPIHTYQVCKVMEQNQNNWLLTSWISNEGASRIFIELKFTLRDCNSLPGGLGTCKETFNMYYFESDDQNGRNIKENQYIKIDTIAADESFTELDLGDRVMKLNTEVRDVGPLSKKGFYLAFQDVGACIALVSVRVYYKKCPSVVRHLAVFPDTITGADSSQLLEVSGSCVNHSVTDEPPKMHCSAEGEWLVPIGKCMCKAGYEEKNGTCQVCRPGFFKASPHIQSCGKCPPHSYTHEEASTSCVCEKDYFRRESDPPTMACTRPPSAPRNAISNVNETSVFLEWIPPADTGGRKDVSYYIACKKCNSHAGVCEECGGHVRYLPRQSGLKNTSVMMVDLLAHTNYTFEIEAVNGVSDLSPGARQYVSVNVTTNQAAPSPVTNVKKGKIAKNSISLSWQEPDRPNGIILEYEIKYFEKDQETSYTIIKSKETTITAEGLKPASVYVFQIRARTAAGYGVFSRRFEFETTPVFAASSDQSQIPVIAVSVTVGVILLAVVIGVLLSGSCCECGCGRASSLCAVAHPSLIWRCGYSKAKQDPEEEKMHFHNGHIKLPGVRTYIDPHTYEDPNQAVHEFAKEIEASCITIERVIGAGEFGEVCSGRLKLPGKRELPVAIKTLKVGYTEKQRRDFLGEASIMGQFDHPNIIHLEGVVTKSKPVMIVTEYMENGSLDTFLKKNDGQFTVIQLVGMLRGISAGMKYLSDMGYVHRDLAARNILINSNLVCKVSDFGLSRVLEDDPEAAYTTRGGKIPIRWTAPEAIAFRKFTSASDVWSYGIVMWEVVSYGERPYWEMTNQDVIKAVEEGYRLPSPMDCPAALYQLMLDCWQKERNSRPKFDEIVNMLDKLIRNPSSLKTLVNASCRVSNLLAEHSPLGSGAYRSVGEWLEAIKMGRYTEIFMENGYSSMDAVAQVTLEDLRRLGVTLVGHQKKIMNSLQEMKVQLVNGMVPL
T5 sequence (P31749 whole entry): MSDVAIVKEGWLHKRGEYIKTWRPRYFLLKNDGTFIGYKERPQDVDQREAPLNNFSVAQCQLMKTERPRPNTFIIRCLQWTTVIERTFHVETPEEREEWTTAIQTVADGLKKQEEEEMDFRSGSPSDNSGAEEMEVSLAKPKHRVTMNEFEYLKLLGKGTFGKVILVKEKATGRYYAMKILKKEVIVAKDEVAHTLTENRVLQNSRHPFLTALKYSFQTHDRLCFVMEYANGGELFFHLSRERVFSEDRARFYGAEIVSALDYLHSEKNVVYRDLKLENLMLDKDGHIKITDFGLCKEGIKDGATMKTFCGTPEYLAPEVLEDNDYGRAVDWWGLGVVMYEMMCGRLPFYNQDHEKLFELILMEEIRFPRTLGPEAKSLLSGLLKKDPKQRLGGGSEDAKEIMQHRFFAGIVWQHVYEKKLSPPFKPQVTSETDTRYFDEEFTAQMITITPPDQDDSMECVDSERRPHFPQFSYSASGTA
T1 sequence (P06239 whole entry): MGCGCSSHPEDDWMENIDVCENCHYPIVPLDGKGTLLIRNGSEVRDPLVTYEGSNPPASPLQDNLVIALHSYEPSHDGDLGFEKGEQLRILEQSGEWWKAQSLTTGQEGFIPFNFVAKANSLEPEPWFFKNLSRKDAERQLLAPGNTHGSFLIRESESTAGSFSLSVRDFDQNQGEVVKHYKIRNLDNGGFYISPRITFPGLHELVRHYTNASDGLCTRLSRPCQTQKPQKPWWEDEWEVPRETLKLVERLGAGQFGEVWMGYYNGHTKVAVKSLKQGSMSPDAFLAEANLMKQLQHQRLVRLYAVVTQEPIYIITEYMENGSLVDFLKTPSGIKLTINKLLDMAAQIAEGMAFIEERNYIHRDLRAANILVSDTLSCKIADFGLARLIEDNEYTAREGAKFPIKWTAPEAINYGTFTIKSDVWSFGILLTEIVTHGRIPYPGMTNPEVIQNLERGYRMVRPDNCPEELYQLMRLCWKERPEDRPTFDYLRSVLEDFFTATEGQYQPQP

As to `c1ccc2c(-c3cnn4cc(-c5ccc(N6CCNCC6)cc5)cnc34)ccnc2c1` [LDN-193189, reference compound], the inhibition at 0.1 µM at LCK was 25.4%; at SRC, 2.89%; on NEK1, -11.9%; at NTRK1, 14.1%; at AKT1, 16.1%; at AXL, 10.7%. The inhibition at 0.1 µM at EPHA5 was -0.32%; at MAP2K1, 11.1%.
Turning to `CN1CCc2cccc(c2)Nc2nccc(n2)N2CCCc3cc(ccc32)C1` [OD16], the inhibition at 0.1 µM was 6.7% at LCK; -19.4% on SRC; -6.3% on NEK1; -37.9% at NTRK1; -4.07% at AKT1; -34.5% at AXL. In addition, the figures for the inhibition at 0.1 µM on EPHA5 and at MAP2K1 were -65.7% and 5.48%, respectively.
With `CN1CCC(=O)NCCNc2ccn3ncc(c3n2)-c2cccc(c2)C1` [OD29], the inhibition at 0.1 µM at LCK is 35.6%; on SRC, -4.82%; at NEK1, 12.6%; on NTRK1, 69.6%; at AKT1, -2.83%; at AXL, 5.83%. In addition, the values for the inhibition at 0.1 µM at EPHA5 and on MAP2K1 were 14.8% and 7.68%, respectively.

The values above are taken from publication PMC8231556, “Inhibiting Endothelial Cell Function in Normal and Tumor Angiogenesis Using BMP Type I Receptor Macrocyclic Kinase Inhibitors” (Cancers, 2021).
